The values that follow come from US5648330A, “Method and composition for treating vascular graft occlusion” (La Jolla Cancer Research Foundation, priority 1995, dated 1997).

As usually defined, the IC50 is the point on the concentration scale where inhibition reaches its midpoint.

Several values for one entry are separate records, joined by “and”; a condition that tells them apart may be missing. Equal values may be shown once. Where no end group is shown, it is not given here. [ ]: non-standard residue; d: D form. Pen = CC(C)(S)[C@H](N)C(=O)O

Assay [1] concerns platelets stimulated with ADP. In words: ADP-stimulated platelet aggregation (Born aggregometry, PRP). It counts as cell-based, human. The settings on record: ADP 10 μm, platelet-rich plasma, 37° C.
Experimental: Platelet aggregation was assessed using the method of Born, Nature 194: 927-929 (1962), incorporated herein by reference. Briefly, the change in light transmission was measured through a stirred suspension of platelets in an aggregometer (Model 400 VS, Chrono-Log, Havertown, Pa., USA). Studies employing ADP were performed with platelet-rich plasma (PRP), which was obtained by low-speed centrifugation (200× g for 10 min.) of whole blood freshly drawn into trisodium citrate (at a final concentration of 11 mM). […] For all studies, the reference standard was platelet-poor plasma, which was obtained by centrifuging PRP at 1000× g for 5 min.
Assay [2] relates to platelets stimulated with thrombin. Nature of the assay: Thrombin-stimulated platelet aggregation (Born aggregometry). Particulars: thrombin 2 U/ml, gel-filtered platelets, 37° C. It counts as cell-based, human. The procedure: Platelet aggregation was assessed using the method of Born, Nature 194: 927-929 (1962), incorporated herein by reference. Briefly, the change in light transmission was measured through a stirred suspension of platelets in an aggregometer (Model 400 VS, Chrono-Log, Havertown, Pa., USA). […] In studies using thrombin, the PRP was gel-filtered on Sepharose 2B in divalent ion-free Tyrode's solution containing 2% BSA. For all studies, the reference standard was platelet-poor plasma, which was obtained by centrifuging PRP at 1000× g for 5 min.
All aggregation studies were performed at 37° C. with a constantly stirred suspension of 3×10^8 platelets/ml. (Platelet count was determined with the aid of a hemacytometer.) Peptides and stimulants were added to these suspensions in 1% dilutions. The PRP and gel-filtered platelets were used within three hours from the time of blood collection.
Peptide anti-aggregation potencies were determined from dose-responsive curves for the inhibition of the maximum aggregation responses stimulated by physiologic doses of ADP (10 μm) and thrombin (2 U/ml).

The subject of assay [3] is platelet aggregation. Nature of the assay: Ex vivo platelet aggregation after peptide injection in canine coronary thrombosis model. Also noted: species or system dog. Particulars: for ex vivo aggregation reduced relative to control: 3 mg/kg. On the procedure:
For all ex vivo studies (see FIGS. 3a, 3b1, 3b2, 3b3, 3c1 and 3c2), control aggregation values were standardized to the percentages of light transmission observed in PRP and PPP samples (0% and 100%, respectively).
(§1) Animals were randomly assigned to two treatment groups: vehicle control (i.e., normal saline) or RGD peptides at various concentrations. Peptides were administered intra-atrially in both bolus and continuous injections. […] A continuous infusion of the same peptide was then started immediately after completion of this initial injection. Animals that received a 5 mg/kg bolus also received a 5 mg/kg/hr infusion, whereas animals that received a 10 mg/kg bolus also received a 10 mg/kg/hr infusion. The anti-thrombotic effects of the peptides were monitored until 30 minutes after the occurrence of a persistent, occlusive thrombus or five hours after the initiation of electrical stimulation (whichever resulted first). If an occlusive thrombus had not developed within four hours after the initiation of current, the peptide infusion was stopped.
(§2) Platelet counts and ex vivo aggregation studies were performed one hour before and 1, 3, and 5 hours after application of anodal direct current.
Platelet aggregation was also determined ex vivo at one, three, and five hours after current application. For these studies, arachidonic acid, or collagen was again used to stimulate the platelets.
The average aggregation values determined in these studies for all of the peptide treatments are depicted in FIGS. 3a, 3b1, 3b2, 3b3, 3c1, and 3c2. […] The control responses in these studies were 70-80% of maximum. […] Here the control responses were 55-80% of maximum.

In assay [4] the test system is coronary thrombosis. In words: Electrically induced canine coronary thrombosis, time to full occlusion. It counts as in vivo, dog. On the procedure:
Male mongrel dogs weighing 14 to 20 kg were selected based on proper aggregation of their platelets in response to arachidonic acid, collagen, and adenosine disphosphate (ADP) and based on similar weights and hemodynamic properties.
Before surgery, the animals were anesthetized with sodium pentobarbital (30 mg/kg, i.v.) and then intubated and ventilated on room air with positive pressure using a respirator (Harvard Apparatus, S. Natick, Mass.) at a volume of 30 ml/kg and a frequency of 12 breaths/min. Surgery, performed under aseptic conditions, was begun with the placement of cannulae into the left carotid artery and jugular vein for monitoring arterial blood pressure (Statham P23 pressure transducer, Gould, Inc., Cardiovascular Products, Oxnard, Calif.) and administering intravenous fluids.
The heart was exposed via a left thoracotomy through the 5th intercostal space. A 2-cm segment of the left circumflex coronary artery (LCCA) was isolated from surrounding tissue by blunt dissection. […] The intra-coronary electrode was constructed by attaching a 25-gauge hypodermic needle tip to a 30-gauge Teflon-insulated silver-coated copper wire. The mechanical occluder was constructed of stainless steel in a C shape with a Teflon screw (2 mm diameter) on top. It was adjusted to control vessel circumference and decrease the reactive hyperemic flow due to a 10-sec (full) occlusion by 50-70% without affecting basal coronary blood flow (FIG. 1c). A monopolar epicardial electrode was sutured to the surface of the ventricle in the region of LCCA distribution to monitor ischemic changes in the electrocardiogram (ECG). The left atrium was cannulated with polythylene tubing for administration of the peptide. Continuous recordings of blood pressure, limb lead II ECG, epicardial electrogram, and mean and phasic LCCA blood flow were obtained on a Model 7 polygraph (Grass Instrument Co., Quincy, Mass.).
One hour after the completion of surgery, a 100 micro-amp continuous anodal direct current delivered from a 9 volt nickel-cadmium battery was applied to the intimal surface of the LCCA. The anode of the battery was in series with a 250,000 ohm potentiometer and the intraluminal coronary artery electrode. The electric circuit was completed by placing the cathode in a subcutaneous site. Electrical stimulation was applied for three hours. At the conclusion of each experiment, the heart was fibrillated electrically and quickly removed, and the LCCA was dissected free as far as possible to verify the position of the implanted anodal electrode.
as §1
Coronary thrombosis was quantified as the time to full occlusion. The effects of the various peptide treatments on coronary thrombosis is illustrated in FIG. 4.

Assay [5] relates to canine platelet aggregation. In words: In vitro canine platelet aggregation stimulated by ADP, arachidonic acid or collagen. It counts as cell-based, dog. Particulars: 10 μm ADP, […] arachidonic acid or 9.6 micrograms/ml collagen; PRP; read-out: IC50 against canine platelet aggregation. The procedure:
as §2
Epinephrine (550 nM) was used to prime platelets before stimulation with arachidonic acid. Peptides were added in 1% dilutions to the PRP solutions.

Setting [6] is: 10 mg/kg bolus + 10 mg/kg/hr infusion, intra-atrial.

Take (t-but-am-Pmp)GHRGDLRPenA: the midpoint of inhibition in assay [1], the IC50, lay at 89 µM.

Turning to (t-butylAmino-Pmp) GHRGDLRCA, the IC50 in assay [1] worked out at 130 µM.

Substance FRGDSPDG came in with an IC50 in assay [1] of 110 µM.

For the substance GPenFRGDSFCA, the IC50 in assay [1] was > 200 µM.

As to GPenGHRGDTRCA, the IC50 in assay [2] was 17 µM; in assay [1], 11.3 µM.

GPenGRGDRPCA had a half-maximal inhibitory concentration (IC50) in assay [1] of 22.3 µM.

Turning to GPenGRGDTPCA, the IC50 was 28 µM in assay [2] and 22.3 µM in assay [1].

Consider GPenLRGDSPCA, for which the results for the IC50 in assay [2] and in assay [1] were 308 µM and 415 µM, respectively.

Regarding GPenLRGDSRCA, the IC50 in assay [2] is 49 µM; in assay [1] it was 41 µM.

Turning to GPenLRGDTPCA, the IC50 in assay [1] came out at 86 µM.

“G[Pen]GRGDSFCA (cysteine pairing not given here)” yielded an IC50 in assay [1] of 115 µM.

Substance “G[Pen]YRGDSPCA (cysteine pairing not given here)” came in with an IC50 in assay [1] of 47 µM.

In assay [1], LPenGHRGDLRCA registered an IC50 of 10.5 µM.

LRGDSPDG showed an IC50 in assay [1] of 150 µM.

The substance PmpGRGDTPCA had an IC50 in assay [1] of 85 µM.

For R2 PenGRGDTPCA, the IC50 worked out at 2.7 µM in assay [2] and 8.2 µM in assay [1].

For R(orn)GHRGDLRDR, the IC50 in assay [1] is > 200 µM.

Take RPenGHRGDWRCR: the “ex vivo inhibition of platelet activation by collagen” value in assay [3] (5 mg/kg) is “near-maximal inhibition”. In assay [3] (5 mg/kg, all three time points), the “ex vivo platelet response to ADP and AA” value is recorded as “completely unresponsive”. In assay [3] (5 mg/kg, platelet count ca. one-third of normal (104,000/ml vs. 361,000/ml)), the “ex vivo anti-aggregation effect when platelet count was low” value is given as “more pronounced”. Besides, the “ex vivo platelet responsiveness” value in assay [3] (10 mg/kg, five-hour point) was “slightly improved”. Moreover, in assay [3] (10 mg/kg, one- and three-hour time points), the “ex vivo platelet aggregation by all three stimuli” value is recorded as “prevented platelet aggregation”. Further, the “thrombus formation in animals with circulating platelet levels one-third of normal” value in assay [4] (5 mg/kg) was “able to prevent thrombus formation”. Also, the “time to full occlusion” value in assay [4] (5 mg/kg bolus + 5 mg/kg/hr infusion) is on record as “significantly prolonged the time to occlusion”; in assay [4] (setting [6]), “completely prevented occlusion”. In addition, the figures for the IC50 in assay [2], in assay [5] and in assay [1] were 1.2 µM, 1.5 to 5 µM and 1.3 µM, respectively.

Consider RPenGRGDTPCA, for which the IC50 in assay [2] was 3.1 µM; in assay [1], 7 µM.

RPenGRGDTPCK came in with an IC50 in assay [1] of 7.6 µM.

RPenGRGDTPCR: the IC50 in assay [2] was 2 µM; in assay [1], 6.3 µM.

With RPenGRGDWPCR, the “ex vivo aggregation reduced relative to control” value in assay [3] (one hour) is 20-58%; in assay [3] (three and five hours, listed as 4R), 75-100% and 72-100%. Moreover, the “ex vivo platelet response to all modes of stimulation” value in assay [3] (10 mg/kg, all time points) is “unresponsive”. For the same substance, the “time to full occlusion” value in assay [4] (3 mg/kg) was “ineffective”; in assay [4] (setting [6]), “prevented occlusion”. In addition, the IC50 is 0.53 µM in assay [2] and 1.5 to 5 µM in assay [5].

Substance “R[Pen]GHRGDTRCR (cysteine pairing not given here)” had an IC50 in assay [1] of 8.8 µM.

Consider “R[Pen]GRGDLRCA (cysteine pairing not given here)”, for which the IC50 came out at 13 µM in assay [2] and 16 µM in assay [1].

For the substance “R[Pen]GRGDSRCA (cysteine pairing not given here)”, the IC50 in assay [2] and in assay [1] was 12 µM in each case.

On to VRGDSPDG, for which the IC50 in assay [1] came to 92 µM.
